From PubChem BioAssay AID1259407 (Chemical Carcinogenesis Research Information System (CCRIS), 2018)
The source made the active and inactive calls. How the calls were made is not given here.

System: CCRIS mutagenicity, Ames/micronucleus/aberration tests
Test: CCRIS mutagenicity studies

Measured: mutagenic call

O=C1NC(=O)C(c2ccccc2)(c2ccccc2)N1
inactive: End Point: IN VITRO CHROMOSOMAL ABERRATIONS, Test System: CHINESE HAMSTER OVARY CELLS, Metabolic Activation: NONE inactive; negative | End Point: IN VITRO CHROMOSOMAL ABERRATIONS, Test System: CHINESE HAMSTER OVARY CELLS, Metabolic Activation: RAT, LIVER, S-9, AROCLOR 1254 inactive; negative | End Point: IN VIVO MICRONUCLEUS, Test System: BONE MARROW POLYCHROMATIC ERYTHROCYTES, Species: MOUSE, Strain/Sex: CD-1/MALE, FEMALE, Route: IP inactive; negative | End Point: IN VIVO MICRONUCLEUS, Test System: FETAL LIVER POLYCHROMATIC ERYTHROCYTES (MALES AND FEMALES), Species: MOUSE, Strain/Sex: FEMALE (PREGNANT), Route: IP inactive; negative | Test System: AMES SALMONELLA TYPHIMURIUM, Strain/Indicator: TA97, Metabolic Activation: NONE, Method: STANDARD PLATE inactive; negative | Test System: AMES SALMONELLA TYPHIMURIUM, Strain/Indicator: TA97, Metabolic Activation: RAT, LIVER, S-9, 3-METHYLCHOLANTHRENE, Method: PREINCUBATION (10, 20 OR 30 MIN) inactive; negative | Test System: AMES SALMONELLA TYPHIMURIUM, Strain/Indicator: TA97, Metabolic Activation: RAT, LIVER, S-9, AROCLOR 1254 (50 OR 100 UG), Method: STANDARD PLATE inactive; negative | Test System: AMES SALMONELLA TYPHIMURIUM, Strain/Indicator: TA97, Metabolic Activation: RAT, LIVER, S-9, AROCLOR 1254, Method: PREINCUBATION (10, 20 OR 30 MIN) inactive; negative | Test System: AMES SALMONELLA TYPHIMURIUM, Strain/Indicator: TA97, Metabolic Activation: RAT, LIVER, S-9, AROCLOR 1254, Method: STANDARD PLATE inactive; negative | Test System: AMES SALMONELLA TYPHIMURIUM, Strain/Indicator: TA97, Metabolic Activation: RAT, LIVER, S-9, PHENOBARBITONE, Method: PREINCUBATION (10, 20 OR 30 MIN) inactive; negative | Test System: AMES SALMONELLA TYPHIMURIUM, Strain/Indicator: TA98, Metabolic Activation: HAMSTER, LIVER, S-9, AROCLOR 1254 (10%), Method: PREINCUBATION inactive; negative | Test System: AMES SALMONELLA TYPHIMURIUM, Strain/Indicator: TA98, Metabolic Activation: NONE, Method: PREINCUBATION inactive; negative | Test System: AMES SALMONELLA TYPHIMURIUM, Strain/Indicator: TA98, Metabolic Activation: NONE, Method: STANDARD PLATE inactive; negative | Test System: AMES SALMONELLA TYPHIMURIUM, Strain/Indicator: TA98, Metabolic Activation: RAT, LIVER, S-9, 3-METHYLCHOLANTHRENE, Method: STANDARD PLATE inactive; negative | Test System: AMES SALMONELLA TYPHIMURIUM, Strain/Indicator: TA98, Metabolic Activation: RAT, LIVER, S-9, AROCLOR 1254 (10%), Method: PREINCUBATION inactive; negative | Test System: AMES SALMONELLA TYPHIMURIUM, Strain/Indicator: TA98, Metabolic Activation: RAT, LIVER, S-9, AROCLOR 1254 (50 OR 100 UG), Method: STANDARD PLATE inactive; negative | Test System: AMES SALMONELLA TYPHIMURIUM, Strain/Indicator: TA98, Metabolic Activation: RAT, LIVER, S-9, AROCLOR 1254, Method: PREINCUBATION (10, 20 OR 30 MIN) inactive; negative | Test System: AMES SALMONELLA TYPHIMURIUM, Strain/Indicator: TA98, Metabolic Activation: RAT, LIVER, S-9, AROCLOR 1254, Method: STANDARD PLATE inactive; negative | Test System: AMES SALMONELLA TYPHIMURIUM, Strain/Indicator: TA98, Metabolic Activation: RAT, LIVER, S-9, PHENOBARBITONE, Method: STANDARD PLATE inactive; negative | Test System: AMES SALMONELLA TYPHIMURIUM, Strain/Indicator: TA100, Metabolic Activation: HAMSTER, LIVER, S-9, AROCLOR 1254 (10%), Method: PREINCUBATION inactive; negative | Test System: AMES SALMONELLA TYPHIMURIUM, Strain/Indicator: TA100, Metabolic Activation: NONE, Method: PREINCUBATION inactive; negative | Test System: AMES SALMONELLA TYPHIMURIUM, Strain/Indicator: TA100, Metabolic Activation: NONE, Method: STANDARD PLATE inactive; negative | Test System: AMES SALMONELLA TYPHIMURIUM, Strain/Indicator: TA100, Metabolic Activation: RAT, LIVER, S-9, AROCLOR 1254 (10%), Method: PREINCUBATION inactive; negative | Test System: AMES SALMONELLA TYPHIMURIUM, Strain/Indicator: TA100, Metabolic Activation: RAT, LIVER, S-9, AROCLOR 1254 (50 OR 100 UG), Method: STANDARD PLATE inactive; negative | Test System: AMES SALMONELLA TYPHIMURIUM, Strain/Indicator: TA100, Metabolic Activation: RAT, LIVER, S-9, AROCLOR 1254, Method: STANDARD PLATE inactive; negative | Test System: AMES SALMONELLA TYPHIMURIUM, Strain/Indicator: TA1530, Metabolic Activation: NONE, Method: STANDARD PLATE inactive; negative | Test System: AMES SALMONELLA TYPHIMURIUM, Strain/Indicator: TA1530, Metabolic Activation: RAT, LIVER, S-9, AROCLOR 1254 (50 OR 100 UG), Method: STANDARD PLATE inactive; negative | Test System: AMES SALMONELLA TYPHIMURIUM, Strain/Indicator: TA1535, Metabolic Activation: HAMSTER, LIVER, S-9, AROCLOR 1254 (10%), Method: PREINCUBATION inactive; negative | Test System: AMES SALMONELLA TYPHIMURIUM, Strain/Indicator: TA1535, Metabolic Activation: NONE, Method: PREINCUBATION inactive; negative | Test System: AMES SALMONELLA TYPHIMURIUM, Strain/Indicator: TA1535, Metabolic Activation: RAT, LIVER, S-9, AROCLOR 1254 (10%), Method: PREINCUBATION inactive; negative | Test System: AMES SALMONELLA TYPHIMURIUM, Strain/Indicator: TA1537, Metabolic Activation: HAMSTER, LIVER, S-9, AROCLOR 1254 (10%), Method: PREINCUBATION inactive; negative | Test System: AMES SALMONELLA TYPHIMURIUM, Strain/Indicator: TA1537, Metabolic Activation: NONE, Method: PREINCUBATION inactive; negative | Test System: AMES SALMONELLA TYPHIMURIUM, Strain/Indicator: TA1537, Metabolic Activation: NONE, Method: STANDARD PLATE inactive; negative | Test System: AMES SALMONELLA TYPHIMURIUM, Strain/Indicator: TA1537, Metabolic Activation: RAT, LIVER, S-9, AROCLOR 1254 (10%), Method: PREINCUBATION inactive; negative | Test System: AMES SALMONELLA TYPHIMURIUM, Strain/Indicator: TA1537, Metabolic Activation: RAT, LIVER, S-9, AROCLOR 1254 (50 OR 100 UG), Method: STANDARD PLATE inactive; negative | Test System: AMES SALMONELLA TYPHIMURIUM, Strain/Indicator: TA1538, Metabolic Activation: NONE, Method: STANDARD PLATE inactive; negative | Test System: AMES SALMONELLA TYPHIMURIUM, Strain/Indicator: TA1538, Metabolic Activation: RAT, LIVER, S-9, 3-METHYLCHOLANTHRENE, Method: STANDARD PLATE inactive; negative | Test System: AMES SALMONELLA TYPHIMURIUM, Strain/Indicator: TA1538, Metabolic Activation: RAT, LIVER, S-9, AROCLOR 1254 (50 OR 100 UG), Method: STANDARD PLATE inactive; negative | Test System: AMES SALMONELLA TYPHIMURIUM, Strain/Indicator: TA1538, Metabolic Activation: RAT, LIVER, S-9, AROCLOR 1254, Method: PREINCUBATION (10, 20 OR 30 MIN) inactive; negative | Test System: AMES SALMONELLA TYPHIMURIUM, Strain/Indicator: TA1538, Metabolic Activation: RAT, LIVER, S-9, AROCLOR 1254, Method: STANDARD PLATE inactive; negative | Test System: AMES SALMONELLA TYPHIMURIUM, Strain/Indicator: TA1538, Metabolic Activation: RAT, LIVER, S-9, PHENOBARBITONE, Method: STANDARD PLATE inactive; negative | Test System: CHINESE HAMSTER OVARY, Strain/Indicator: CHO-K1-BH4 (HGPRT)/6-THIOGUANINE, Metabolic Activation: NONE, Method: SUSPENSION/PLATE inactive; negative | Test System: CHINESE HAMSTER OVARY, Strain/Indicator: CHO-K1-BH4 (HGPRT)/6-THIOGUANINE, Metabolic Activation: S-9, Method: SUSPENSION/PLATE inactive; negative | Test System: MOUSE LYMPHOMA, Strain/Indicator: L5178Y (TK+/TK-), Metabolic Activation: NONE, Method: SUSPENSION/PLATE inactive; negative | Test System: MOUSE LYMPHOMA, Strain/Indicator: L5178Y (TK+/TK-), Metabolic Activation: RAT, LIVER, S-9, AROCLOR 1254, Method: SUSPENSION/PLATE inactive; negative | Test System: MOUSE LYMPHOMA, Strain/Indicator: L5178Y (TK+/TK-), Metabolic Activation: S-9, Method: SUSPENSION/PLATE inactive; negative
